Results from US12195477B2, “Derivative of berberine, and the preparation method and application thereof” (priority 2021, dated 2025).

How the values were obtained:
[1] = test system: myocardial infarcted mice; test: Mouse model of myocardial infarction (ligation of the left anterior descending coronary artery), cardiac function by ultrasonography; assay type: in vivo, C57BL/6 male mice; conditions: 2 weeks
Description: The mouse model of myocardial infarction was established by ligation of the left anterior descending branch of the coronary artery. The agent was then administrated to the mice to determine the effect of the test sample on myocardial ischemia, and the effect of the test sample on the cardiac functions of the myocardial infarct mice.
Random grouping: the C57BL/6 mice were randomly divided into 5 groups, namely the sham-operation group, the myocardial infarction group, the berberine group (berberine at a dosage of 40 mg/kg·d^−1), the test compound group (brominated 9-O-propyl berberine thiazole formate at a dosage of 40 mg/kg·d^−1) and the positive control group (sacubitril and valsartan sodium at a dosage of 26 mg/kg·d^−1).
The mouse model of myocardial ischemia was established by ligation of the left anterior descending branch of the coronary artery. Healthy male C57BL/6 mice (28±2 g) were anesthetized by intraperitoneal injection of aphrodin (0.2 g/kg). The anesthetic mice were placed in a supine position on the operation desk with the trachea connected to a ventilator by inserting a tracheal tube. An incision of about 0.5˜4.0 cm was made on the skin of the left chest from the upper left to the lower right. Pectoralis minor and serratus anterior were separated. The intercostal muscle was bluntly separated between the fourth and fifth rib, and the heart was slightly squeezed out.
Except for the sham-operation group, coronary artery ligation was performed to all other mice. The mice were randomly divided into 4 groups 24 hours after ligation, including the myocardial infarction group, the berberine group, the brominated 9-O-propyl berberine thiazole formate group and the positive control group. Blank solvent, berberine, brominated 9-O-propyl berberine thiazole formate and positive control sacubitril and valsartan sodium were administrated to the mice by gavage (as shown in Table 1) for consecutive 14 days. […]
The Experiment data were expressed as mean±standard error. […] All experiment results were statistically analyzed by Graphpad Prism 8.0.

[2] = test system: primary cardiac cells from neonatal mice; test: Cytotoxicity test, CCK-8 assay; assay type: cell-based; conditions: 24 hours
Description: The toxicity of the novel compound, brominated 9-O-propyl berberine thiazole formate, on the primary cardiac cells from neonatal mice was detected using CCK-8 assay. The CCK-8 agent contains WST-8, which has the chemical name: 2-(2-methoxy-4-nitrophenyl)-3-(4-nitrophenyl)-5-(2,4-disulfophenyl)-2H-tetrazolium sodium salt. It can be reduced to yellow formazan with high water solubility by the dehydrogenase existing in the mitochondrion in a cell in the presence of electron carrier 1-methoxy-5-methylphenazinium methyl sulfate (1-Methoxy PMS). The amount of formazan generated is proportional to the number of live cells. The absorbance is detected at a wavelength of 450 nm by an enzyme-linked immunosorbent assay, which represents the number of live cells, in which a larger value indicates a higher cell activity. […]
After digestion, the primary cardiac cells from neonatal mice were re-suspended into a 96-well plate at a appropriate concentration with volume of 100 μl for each well. […] After incubation at 37° C. for 1-4 hours, the mixture was placed in a micro-plate reader and shaken for 10 s. The absorbance at 450 nm (OD450) was recorded.
The relative inhibition rate of the compound at various concentrations on the primary cardiac cells from neonatal mice was calculated based on the equation: cell inhibition rate (%)=(1−OD450 of the sample group/OD450 of the control group)*100. […]

[3] = test system: primary cardiac cells from neonatal mice after H2O2 treatment; test: ATP in H2O2-injured primary cardiac cells (luciferase kit); assay type: cell-based
Description: A kit has been used in this study, based on that ATP is demanded to provide energy during the fluorescence production by the fluorescein catalyzed by the firefly luciferase (also termed as luciferase). When both luciferase and fluorescein are excessive, in a certain concentration range, the fluorescence generated is proportional to the concentration of ATP. That is, the concentration of ATP in the solution can be detected sensitively.
(§1) After disinfecting the neonatal mice (within 3 days after birth) by alcohol, the skin and sternum of the left chest were cut off at one time using a scissor. The heart was then squeezed out, taken and put into a pre-cooled FBS-free DMEM culture medium with a curved forceps. The blood vessels on the surface of heart, the residual blood and the attached lung tissue were removed. The heart tissue was cut into pieces with homogeneous size. The heart pieces were drawn into a 15 ml centrifuge tube, and the supernatant was discarded. The tissue was rinsed by PBS for 2-3 times. The trypsinization solution was added at equivalent volume of the heart tissue. The centrifuge tube was kept shaken to accelerate digestion. After the solution become turbid, the digestion was stopped by transferring the solution to DMEM culture medium. After the digestion of all heart tissues was completed, the digest was filtered by a sieve, and centrifuged at 1500 rpm for 5 min. […]
(§2) After digestion, the primary cardiac cells from neonatal mice were re-suspended into a 6-well plate at a appropriate concentration with volume of 2 mL for each well. […] The activity of SOD and the content of ATP in the cells were determined according to the instruction provided in the SOD and ATP detection kit, respectively. […]
(§3) The experiment data were expressed as mean±standard error. The SOD and ATP content in the cells in each group were analyzed by One-way ANOVA, with P<0.05 indicating a significant difference. All experiment results were statistically analyzed and plotted using Graphpad Prism 8.0.

[4] = test system: primary cardiac cells from neonatal mice after H2O2 treatment; test: SOD in H2O2-injured primary cardiac cells (WST-1 assay); assay type: cell-based
Protocol: Dismutation of superoxide anion can be catalyzed by superoxide dismutase (SOD) to give hydrogen peroxide and oxygen. SOD is a kind of important antioxidases in organisms. SOD plays a vital role in the equilibrium between oxidation and anti-oxidation in organisms. SOD is able to scavenge superoxide anion free radicals and protect cells from injuries. In this test, the SOD activity was determined using WST-1 assay.
as §1, §2, §3

[5] = 40 mg/kg gavage once per day, ##P<0.01
[6] = vs. the model group, among 1, 2.5 and 5 μM, H2O2 100 μM

Structure (SMILES): COc1ccc2cc3[n+](cc2c1OCCCOC(=O)c1cscn1)CCc1cc2c(cc1-3)OCO2.[Br-] [9-(3-((thiazole-4-carbonyl)oxy)propoxy)-10-methoxy-5,6-dihydro-[1,3]dioxolo[4,5-g]isoquinolino[3,2-a]isoquinolin-7-ium bromide]
- ejection fraction (EF) vs. the myocardial infarction group [1, 5]: significantly increased
- fraction shortening (FS) vs. the myocardial infarction group [1, 5]: significantly increased
- effect on EF and FS compared with berberine ([1]; both 40 mg/kg gavage, &P<0.05 vs. the berberine group): better than that of the berberine
- inhibition at 1000 µM ([2]; Mus musculus, 1000 μM, CCK-8, OD450, read-out: cell inhibition rate): 41%
- toxicity on primary cardiac cells ([2]; concentration range tested 0.1-1000 μM): low toxicity
- ATP content vs. the model group ([3]; 1, 2.5 and 5 μM, H2O2 100 μM, 24 hours, ##P<0.01, ###P<0.001): increased
- ATP effect compared with berberine ([3]; same concentration (5 μM), &&P<0.01): apparently better than the effect of berberine at the same concentration
- highest enhancement of the ATP content [3, 6]: 59.1%
- SOD content vs. the model group ([4]; 1, 2.5 and 5 μM, H2O2 100 μM, 24 hours, #P<0.05, ###P<0.001): increased
- SOD effect compared with berberine ([4]; same concentration (5 μM), &P<0.05): apparently better than the effect of berberine at the same concentration
- highest enhancement of the SOD content [4, 6]: 43.4%
